The results in this text go back to patent US20250179047A1, “5-[7-(3,4-DIHYDRO-1H-ISOQUINOLINE-2-CARBONYL)-1,2,3,4 TETRAHYDROISOQUINOLIN-6-YL]-1H-PYRROLE-3-CARBOXAMIDE DERIVATIVES, PHARMACEUTICAL COMPOSITIONS CONTAINING THEM AND THEIR USES AS PRO-APOPTOTIC AGENTS” (LES LABORATOIRES SERVIER, priority 2022, published 2025).

One experiment concerns the target BCL2 WT (Homo sapiens (Human), UniProt P10415). The experiment in a line: TR-FRET competitive binding assay, BCL2 WT. The settings on record: Ki determined from IC50, read-out: TR_FRET EKI_Bcl2 WT. The procedure, abridged: (§1)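 Competitive TR-FRET displacement of fluorescein-PUMA peptide (2 or 20 nM) from 0.5 nM terbium-labelled N-terminal Halo-fusion BCL2 (1-207, wild type or mutant) or BCLXL (2-196), expressed in E. coli. Buffer 50 mM Hepes pH 7.5, 150 mM NaCl, 5% DMSO; 2 h at 23°C. 520/495 nm ratio fitted over 11 points for IC50, converted to Ki.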

For experiment [1], the target named is BCL2 G101V (Homo sapiens, UniProt P10415, G101V). As to the kind of experiment: TR-FRET competitive binding assay, BCL2 G101V. The following applies: BCL2 G101V; Ki determined from IC50; read-out: TR_FRET EKI_Bcl2 G101V. The procedure, abridged:
as §1
In general terms: TR-FRET usually uses a lanthanide donor and a delayed reading to cut background.

Experiment [2] relates to BCL2 G101V. As to the kind of experiment: TR-FRET competitive binding assay, BCL2 G101V. Details: species or system human. The following applies: ratio Ki BCL2 G101V / Ki BCL2 WT. The procedure, abridged: as §1
For another experiment, the target named is BCL2 D103Y (Homo sapiens, UniProt P10415, D103Y). As to the kind of experiment: TR-FRET competitive binding assay, BCL2 D103Y. The following applies: Ki determined from IC50, read-out: TR_FRET EKI_Bcl2 D103Y. The procedure, abridged:
as §1

The target in a further experiment is BCLXL WT (Homo sapiens (Human), UniProt Q07817). The experiment in a line: TR-FRET competitive binding assay, BCLXL WT. The settings on record: for Ki: BCLXL WT, Ki determined from IC50, read-out: TR_FRET EKI BclxL; for TR_FRET EKI BCLxL/WT selectivty ratio: ratio Ki BCLxL / Ki BCL2 WT. The procedure, abridged:
as §1

In a further experiment the test system is KMS-12-PE Bcl-2 WT. As to the kind of experiment: In vitro cytotoxicity CellTiter-Glo 48 h, KMS-12-PE Bcl-2 WT. The experiment is classed as cell-based. The settings on record: Homo sapiens, KMS-12-PE, C50 = concentration needed to reach 50% of the cellular viability. The procedure, abridged: (§2)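 Viability measured by CellTiter-Glo luminescence after 48 h compound exposure (11-point curve, 37 °C, 5% CO2). Cells: KMS-12-PE transduced with wild-type or G101V-mutant Bcl-2, FACS-sorted for TagRFP. Reported C50 = concentration reaching 50% cellular viability.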

For a further experiment, the system named is KMS-12-PE Bcl-2 G101V. The experiment in a line: In vitro cytotoxicity CellTiter-Glo 48 h, KMS-12-PE Bcl-2 G101V. The following applies: for Ratio (G101V/WT): C50 KMS-12-PE Bcl-2 G101V over C50 KMS-12-PE Bcl-2 WT; for IC50: Homo sapiens, KMS-12-PE, 48 h, CellTiter-Glo, C50 = concentration needed to reach 50% of the cellular viability. Format: cell-based. The procedure, abridged: as §2
(In ATP-based viability assays light output follows the ATP content of the culture.)

Sequence of BCLXL WT (Q07817 other isoform, or with tags, fused parts or gaps): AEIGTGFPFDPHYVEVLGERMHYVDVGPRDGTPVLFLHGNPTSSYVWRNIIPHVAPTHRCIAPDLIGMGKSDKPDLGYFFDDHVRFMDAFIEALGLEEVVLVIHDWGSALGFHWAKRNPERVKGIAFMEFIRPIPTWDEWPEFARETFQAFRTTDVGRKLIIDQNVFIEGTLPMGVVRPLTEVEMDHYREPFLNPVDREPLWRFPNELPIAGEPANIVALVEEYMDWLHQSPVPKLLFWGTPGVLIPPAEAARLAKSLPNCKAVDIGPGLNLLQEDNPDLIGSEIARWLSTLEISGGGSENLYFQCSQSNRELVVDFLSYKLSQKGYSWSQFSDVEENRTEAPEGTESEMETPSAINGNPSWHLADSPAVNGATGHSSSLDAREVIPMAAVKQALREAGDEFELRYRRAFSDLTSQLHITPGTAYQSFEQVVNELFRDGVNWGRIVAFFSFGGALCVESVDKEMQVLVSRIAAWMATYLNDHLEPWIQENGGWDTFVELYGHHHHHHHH

By IC50 is commonly meant the concentration at which inhibition is half-maximal. For the molecule `Cc1c(N(C(=O)c2cc(-c3cc4c(cc3C(=O)N3Cc5ccccc5C[C@H]3C)CN(C(=O)Cc3ccc(OCCN5CCOC(C)C5)cc3F)CC4)n(C)c2C)c2ccc(O)cc2)cc(C#N)n1C` (single isomer, unassigned) [Example 75, N-(5-cyano-1,2-dimethyl-1H-pyrrol-3-yl)-5-[2-(2-{2-fluoro-4-[2-((2S or R)-2-methylmorpholin-4-yl)ethoxy]phenyl}acetyl)-7-[(3R)-3-methyl-1,2,3,4-tetrahydroisoquinoline-2-carbonyl]-1,2,3,4-tetrahydroisoquinolin-6-yl]-N-(4-hydroxyphenyl)-1,2-dimethyl-1H-pyrrole-3-carboxamide], the Ki stood at 0.13 nM on BCL2 WT, 0.5 nM on BCL2 G101V [1], 0.28 nM on BCL2 D103Y and 1.4 nM at BCLXL WT. In addition, the “TR_FRET EKI G101V/WT selectivty ratio” value with BCL2 G101V [2] is on record as 3.7. Also, on BCLXL WT, the “TR_FRET EKI BCLxL/WT selectivty ratio” value was 10.8. The figures for the IC50 with KMS-12-PE Bcl-2 WT and in the experiment with KMS-12-PE Bcl-2 G101V were 0.0037 µM and 0.0147 µM, respectively. Also, the “Ratio (G101V/WT)” value with KMS-12-PE Bcl-2 G101V turned out to be 3.93.

`Cc1c(N(C(=O)c2cc(-c3cc4c(cc3C(=O)N3Cc5ccccc5C[C@H]3CN3CCCCC3)CN(C(=O)Cc3ccc(OCCN5CCN(CCF)CC5)cc3)CC4)n(C)c2C)c2ccc(O)cc2)cc(C#N)n1C` [Example 122, N-(5-cyano-1,2-dimethyl-1H-pyrrol-3-yl)-5-{2-[2-(4-{2-[4-(2-fluoroethyl)piperazin-1-yl]ethoxy}phenyl)acetyl]-7-[(3S)-3-[(piperidin-1-yl)methyl]-1,2,3,4-tetrahydroisoquinoline-2-carbonyl]-1,2,3,4-tetrahydroisoquinolin-6-yl}-N-(4-hydroxyphenyl)-1,2-dimethyl-1H-pyrrole-3-carboxamide]: the Ki on BCL2 WT was 0.05 nM; on BCL2 G101V [1], 0.3 nM; at BCL2 D103Y, 0.13 nM; at BCLXL WT it was 3.7 nM. Besides, in the experiment with BCL2 G101V [2], the “TR_FRET EKI G101V/WT selectivty ratio” value was 5.1. For the same molecule, at BCLXL WT, the “TR_FRET EKI BCLxL/WT selectivty ratio” value is 69.8. For the same molecule, the IC50 in the experiment with KMS-12-PE Bcl-2 WT came out at 0.0167 µM; in the experiment on KMS-12-PE Bcl-2 G101V, 0.0662 µM. Further, in the experiment with KMS-12-PE Bcl-2 G101V, the “Ratio (G101V/WT)” value was determined as 3.96.

For `Cc1c(C(=O)N(c2ccc(O)cc2)c2cc(C#N)n(C(F)F)c2C)cc(-c2cc3c(cc2C(=O)N2Cc4ccccc4C[C@H]2CN2CCCCC2)CN(C(=O)Cc2ccc(OCCN4C[C@@H](C)O[C@@H](C)C4)cc2)CC3)n1C` [Example 129, N-[5-cyano-1-(difluoromethyl)-2-methylpyrrol-3-yl]-5-{2-[2-(4-{2-[cis-2,6-dimethylmorpholin-4-yl]ethoxy}phenyl)acetyl]-7-{[(3S)-3-(piperidin-1-ylmethyl)-3,4-dihydro-1H-isoquinolin-2-yl]carbonyl}-3,4-dihydro-1H-isoquinolin-6-yl}-N-(4-hydroxyphenyl)-1,2-dimethylpyrrole-3-carboxamide], the Ki at BCL2 WT amounted to 0.15 nM; at BCL2 G101V [1], 0.8 nM; on BCL2 D103Y, 0.24 nM; at BCLXL WT, 14.4 nM. For the same molecule, in the experiment on BCL2 G101V [2], the “TR_FRET EKI G101V/WT selectivty ratio” value worked out at 5.5. Besides, at BCLXL WT, the “TR_FRET EKI BCLxL/WT selectivty ratio” value was 96.0. Besides, the figures for the half-inhibitory concentration (IC50) in the experiment with KMS-12-PE Bcl-2 WT and in the experiment with KMS-12-PE Bcl-2 G101V were 0.014 µM and 0.0632 µM, respectively. In addition, the “Ratio (G101V/WT)” value with KMS-12-PE Bcl-2 G101V was found to be 4.5143.

On to `Cc1c(N(C(=O)c2cc(-c3cc4c(cc3C(=O)N3Cc5ccccc5C[C@H]3C)CN(C(=O)C3Cc5ccccc5O3)CC4)n(C)c2C)c2ccc(O)cc2)cc(C#N)n1C` (stereo partly drawn) [Example 20, N-(5-cyano-1,2-dimethylpyrrol-3-yl)-5-{2-[(2,3-dihydro-1-benzofuran-2-yl)carbonyl]-7-{[(3R)-3-methyl-3,4-dihydro-1H-isoquinolin-2-yl]carbonyl}-3,4-dihydro-1H-isoquinolin-6-yl}-N-(4-hydroxyphenyl)-1,2-dimethylpyrrole-3-carboxamide], for which the Ki was 0.53 nM on BCL2 WT, 2.7 nM on BCL2 G101V [1], 0.68 nM at BCL2 D103Y and 6.6 nM at BCLXL WT. For the same molecule, in the experiment on BCL2 G101V [2], the “TR_FRET EKI G101V/WT selectivty ratio” value is listed as 5.0. In addition, the “TR_FRET EKI BCLxL/WT selectivty ratio” value at BCLXL WT worked out at 12.5. The IC50 was determined as 0.0101 µM with KMS-12-PE Bcl-2 WT and 0.0681 µM with KMS-12-PE Bcl-2 G101V. Moreover, in the experiment on KMS-12-PE Bcl-2 G101V, the “Ratio (G101V/WT)” value is 6.74.

Consider `Cc1c(N(C(=O)c2cc(-c3cc4c(cc3C(=O)N3Cc5ccccc5C[C@H]3C)CN(C(=O)Cc3ccc(OCCN5CCOC6(CCCC6)C5)cc3)CC4)n(C)c2C)c2ccc(O)cc2)cc(C#N)n1C` [Example 73, N-(5-cyano-1,2-dimethyl-1H-pyrrol-3-yl)-N-(4-hydroxyphenyl)-1,2-dimethyl-5-{7-[(3R)-3-methyl-1,2,3,4-tetrahydroisoquinoline-2-carbonyl]-2-{2-[4-(2-{6-oxa-9-azaspiro[4.5]decan-9-yl}ethoxy)phenyl]acetyl}-1,2,3,4-tetrahydroisoquinolin-6-yl}-1H-pyrrole-3-carboxamide], for which the Ki at BCL2 WT stood at 0.5 nM; on BCL2 G101V [1], 2.7 nM; on BCL2 D103Y it was 1.74 nM; on BCLXL WT, 8.9 nM. For the same molecule, the “TR_FRET EKI G101V/WT selectivty ratio” value with BCL2 G101V [2] came out at 5.4. Further, the “TR_FRET EKI BCLxL/WT selectivty ratio” value on BCLXL WT is reported as 17.8. The IC50 amounted to 0.0057 µM with KMS-12-PE Bcl-2 WT and 0.0298 µM in the experiment with KMS-12-PE Bcl-2 G101V. Further, the “Ratio (G101V/WT)” value in the experiment with KMS-12-PE Bcl-2 G101V turned out to be 5.25.

Take `Cc1c(C(=O)N(c2ccc(O)cc2)c2ccc(OC(C)C)c(C#N)c2)cc(-c2cc3c(cc2C(=O)N2Cc4ccccc4C[C@H]2CN2CCCCC2)CN(C(=O)Cc2ccc(OCCN4CCOCC4)cc2F)CC3)n1C` [Example 168, N-(3-cyano-4-isopropoxyphenyl)-5-[2-(2-{2-fluoro-4-[2-(morpholin-4-yl)ethoxy]phenyl}acetyl)-7-{[(3S)-3-(piperidin-1-ylmethyl)-3,4-dihydro-1H-isoquinolin-2-yl]carbonyl}-3,4-dihydro-1H-isoquinolin-6-yl]-N-(4-hydroxyphenyl)-1,2-dimethylpyrrole-3-carboxamide]: the Ki was 0.11 nM on BCL2 WT, 0.5 nM on BCL2 G101V [1], 0.22 nM at BCL2 D103Y and 11 nM on BCLXL WT. Also, the “TR_FRET EKI G101V/WT selectivty ratio” value in the experiment with BCL2 G101V [2] stood at 4.7. Also, the “TR_FRET EKI BCLxL/WT selectivty ratio” value at BCLXL WT turned out to be 100.0. In addition, the IC50 came out at 0.0075 µM in the experiment on KMS-12-PE Bcl-2 WT and 0.0558 µM in the experiment on KMS-12-PE Bcl-2 G101V. For the same molecule, the “Ratio (G101V/WT)” value in the experiment with KMS-12-PE Bcl-2 G101V is reported as 7.4599.
